How the values were obtained:
hCRTH2 receptor [1] = target: T1, hCRTH2 receptor (Homo sapiens (Human), UniProt Q9Y5Y4); test: Radioligand displacement assay in presence of human serum albumin (HSA); details: 3H-PGD2 2.5 nM, HEK293-hCRTH2 membrane fragments, Binding-Buffer-HSA with 0.5% human serum albumin instead of 0.1% BSA
Procedure: (§1) First, recombinant HEK293-hCRTH2 cells were detached from culture plates into 5 ml buffer A/plate (Buffer A: 5 mM Tris, 1 mM MgCl2-6H2O pH=7.4) using a rubber policeman. Cells were then transferred into centrifugation tubes and centrifuged for 5 min at 400 g. The cell pellet was resuspended in the same buffer and tubes were frozen at −80° C. Cells were thawed and membrane fragments were generated by homogenization using a polytron homogenizer (30 seconds). The membrane fragments were then centrifuged at 3000 g for 20 minutes and resuspended in buffer C (Buffer C: 75 mM Tris, 25 mM MgCl2, 250 mM Saccharose pH 7.4). Aliquots of membrane fragments were stored at −20° C.
(§2) Binding assay was performed in a final assay volume of 250 μl. First, 25 μl of test compound, previously diluted in Binding-Buffer (Binding-Buffer: 50 mM Tris-Base, 100 mM NaCl, 1 mM EDTA, 0.1% BSA (protease free), 0.01% NaN3, 10 mM MnCl2 pH 7.0) was placed into each well. After addition of 75 μl Binding-Buffer, 50 μl of the radioligand ^3H-PGD2 (at 2.5 nM (220.000 dpm/well) from ANAWA ART0662) was added to each well. Binding assay was started by addition of 100 μl CRTH2 membrane fragments, reaching a final concentration of 20 μg/well. For non-specific binding, PGD2 was added to the reaction mixture to […] final concentration. This assay mix was incubated for 90 minutes at room temperature and then filtered through a GF/C filter 96-well plate which was pre-soaked for 3 hours in 0.5% polyethyleneimine (PEI). The filter-wells were washed three times with ice cold Binding-Buffer. Then, 40 μl of Microscint-40 (Packard) was added to each well and the retained radioactivity quantified in a Topcount (Packard).
Radioligand displacement assay in presence of human serum albumin (HSA) was performed as described above, with following modifications. Binding-Buffer-HSA: Binding-buffer+0.5% Sigma Albumin from Human serum A1887 (instead of 0.1% BSA). A volume of 25 μl test compound, previously diluted in Binding-Buffer-HSA was placed into each well. After addition of 75 μl Binding-Buffer-HSA, 50 μl of ^3H-PGD2 (at 2.5 nM (220.000 dpm/well) from ANAWA ART0662) was added to each well. Remaining protocol was identical as described above.

hCRTH2 receptor [2] = target: T1, hCRTH2 receptor; test: hCRTH2 receptor membranes radioligand (3H-PGD2) displacement assay; details: 3H-PGD2 2.5 nM, HEK293-hCRTH2 membrane fragments, Binding-Buffer with 0.1% BSA
Procedure: as §1, §2

T1 sequence (Q9Y5Y4 whole entry, the tested form may be a part): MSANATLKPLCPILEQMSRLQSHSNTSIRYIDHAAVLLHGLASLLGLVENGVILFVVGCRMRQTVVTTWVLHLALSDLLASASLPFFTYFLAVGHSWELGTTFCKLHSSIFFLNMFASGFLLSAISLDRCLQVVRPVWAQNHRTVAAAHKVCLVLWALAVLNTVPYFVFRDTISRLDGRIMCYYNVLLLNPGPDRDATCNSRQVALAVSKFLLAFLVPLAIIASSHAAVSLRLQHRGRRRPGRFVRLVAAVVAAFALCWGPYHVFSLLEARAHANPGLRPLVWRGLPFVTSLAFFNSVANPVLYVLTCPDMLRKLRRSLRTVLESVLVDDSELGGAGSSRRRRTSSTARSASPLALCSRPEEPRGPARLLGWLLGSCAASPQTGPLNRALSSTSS

| IC50 (hCRTH2 receptor [1]) [nM] | IC50 (hCRTH2 receptor [2]) [nM] | SMILES |
| --- | --- | --- |
| 46 | 4 | CN(c1ncc(Cl)cn1)C1CCc2c(CC(=O)O)c3ccc(F)cc3n2C1 (stereo not drawn) [Example 17, 2-(7-((5-chloropyrimidin-2-yl)(methyl)amino)-3-fluoro-6,7,8,9-tetrahydropyrido[1,2-a]indol-10-yl)acetic acid] |
| 9 | 0.6 | O=C(O)Cc1c2n(c3cc(Cl)ccc13)CC(N(CC1CC1)c1ncc(F)cn1)CC2 (stereo not drawn) [Example 51, 2-(3-chloro-7-((cyclopropylmethyl)(5-fluoropyrimidin-2-yl)amino)-6,7,8,9-tetrahydropyrido[1,2-a]indol-10-yl)acetic acid] |
| 38 | 9 | CN(c1ncc(Cl)cn1)C1CCc2c(CC(=O)O)c3ccc(C(F)(F)F)cc3n2C1 (stereo not drawn) [Example 22, 2-(7-((5-chloropyrimidin-2-yl)(methyl)amino)-3-(trifluoromethyl)-6,7,8,9-tetrahydropyrido[1,2-a]indol-10-yl)acetic acid] |
| 304 | 9 | O=C(O)Cc1c2n(c3cc(F)ccc13)CC(Nc1ncc(F)cn1)CC2 (stereo not drawn) [Example 34, 2-(3-fluoro-7-((5-fluoropyrimidin-2-yl)amino)-6,7,8,9-tetrahydropyrido[1,2-a]indol-10-yl)acetic acid] |
| 6 | 3 | O=C(O)Cc1c2n(c3cc(Cl)ccc13)CC(N(CC(F)F)c1nc3cc(F)ccc3o1)CC2 (stereo not drawn) [Example 44, 2-(3-chloro-7-((2,2-difluoroethyl)(5-fluorobenzo[d]oxazol-2-yl)amino)-6,7,8,9-tetrahydropyrido[1,2-a]indol-10-yl)acetic acid] |
| 59 | 92 | CN(c1nc2cc(F)ccc2s1)C1CCc2c(CC(=O)O)c3ccccc3n2C1 (stereo not drawn) [Example 6, 2-(7-((5-fluorobenzo[d]thiazol-2-yl)(methyl)amino)-6,7,8,9-tetrahydropyrido[1,2-a]indol-10-yl)acetic acid] |
| 3 | 1 | CCN(c1ncc(F)cn1)C1CCc2c(CC(=O)O)c3ccc(Cl)cc3n2C1 (stereo not drawn) [Example 45, 2-(3-chloro-7-(ethyl(5-fluoropyrimidin-2-yl)amino)-6,7,8,9-tetrahydropyrido[1,2-a]indol-10-yl)acetic acid] |
| 123 | 12 | CN(c1nc2cc(F)ccc2o1)C1CCc2c(CC(=O)O)c3cc(F)ccc3n2C1 (stereo not drawn) [Example 8, 2-(2-fluoro-7-((5-fluorobenzo[d]oxazol-2-yl)(methyl)amino)-6,7,8,9-tetrahydropyrido[1,2-a]indol-10-yl)acetic acid] |
| 29 | 9 | CN(c1ncc(F)cn1)C1CCc2c(CC(=O)O)c3ccccc3n2C1 (stereo not drawn) [Example 2, 2-(7-((5-fluoropyrimidin-2-yl)(methyl)amino)-6,7,8,9-tetrahydropyrido[1,2-a]indol-10-yl)acetic acid] |
